Series [1] has as its system breinlia booliati. In words: Time taken for In vitro anti-filarial activity to immobilize breinlia booliati (Microfilaria). In kind it is functional.
The test system of series [2] is breinlia booliati. In words: Time taken for In vitro anti-filarial activity to immobilize breinlia booliati (adult worms). The class given is functional.
The species named for series [3] is Mus musculus. In words: Minimum effective dose which on 5th day reduced the mean infection level to one-fiftieth of the control. The class given is functional.
The species named for series [4] is Mus musculus. Put plainly: Lethal dose that killed mice in 48 hr. The class given is toxicity, organism-based. The note with it: in vivo.
The nature of series [5]: Ratio of activity of quinine versus compound against Plasmodium berghei in mice. In kind it is functional.
The species named for series [6] is Mus musculus. Put plainly: Minimum effective dose which on 5th day reduced the mean infection level to one-fiftieth of the control; No activity observed at a dose range of 0.05-2.0 mg (HCl) per 20 g.

These results are taken from ChEMBL document CHEMBL1121764, “Synthesis of some novel amodiaquine analogues as potential antimalarial and antifilarial compounds” (J Med Chem, 1981).

Structures are written as SMILES.

In the case of `CN1CCN(C(=O)NCc2cc(Nc3ccnc4cc(Cl)ccc34)ccc2O)CC1`, the TIME was 7 h in series [1] and 5 h in series [2]. The MED in series [3] was 0.043 (mg of base) 20g-1. Further, in series [4], the LD app stood at 0.66 mM/kg. The Ratio in series [5] was 28.4.
`CCN(CC)C(=O)N(CC)Cc1cc(Nc2ccnc3cc(Cl)ccc23)ccc1O`: the TIME in series [1] and in series [2] was 8 h in each case. For the same compound, the MED entry in series [6] was “No activity”.
In the case of `CCN(CC)C(=O)NCc1cc(Nc2ccnc3cc(Cl)ccc23)ccc1O`, the TIME in series [1] and in series [2] was 8 h in each case. Moreover, the MED result in series [6] was “No activity”.
In the case of `COc1ccc(Nc2ccnc3cc(Cl)ccc23)cc1CNC(=O)N1CCN(C)CC1`, the TIME in series [1] is 7 h; in series [2], 5 h. Besides, the MED in series [3] is recorded as 0.43 (mg of base) 20g-1. Also, in series [4], the LD app was determined as 0.68 mM/kg. Further, the Ratio in series [5] amounted to 2.8.
In the same order, the values of `CCN(CC)C(=O)N1CCN(Cc2cc(Nc3ccnc4cc(Cl)ccc34)ccc2O)CC1` are 6 h, 3 h, 0.43 (mg of base) 20g-1, 0.37 mM/kg and 2.8.
On to `CCN(CC)C(=O)NCc1cc(Nc2ccnc3cc(Cl)ccc23)ccc1OC`, for which the TIME in series [1] and in series [2] was 8 h in each case. Besides, the MED result in series [6] is “No activity”.
As for `CCN(Cc1cc(Nc2ccnc3cc(Cl)ccc23)ccc1O)C(=O)N1CCN(C)CC1`, the TIME in series [1] and in series [2] was 3 h in each case. Moreover, in series [3], the MED is recorded as 0.21 (mg of base) 20g-1. Besides, the LD app in series [4] is 0.76 mM/kg. In addition, the Ratio in series [5] worked out at 5.8.
For the compound `CCN(Cc1cc(Nc2ccnc3cc(Cl)ccc23)ccc1OC)C(=O)N1CCN(C)CC1`, the TIME in series [1] and in series [2] was 3 h each time. Moreover, the MED in series [3] is 0.43 (mg of base) 20g-1. The compound also returned an LD app in series [4] of 0.63 mM/kg. Moreover, the Ratio in series [5] is 2.8.
`CCN(CC)C(=O)N(CC)Cc1cc(Nc2ccnc3cc(Cl)ccc23)ccc1OC`: the TIME in series [1] and in series [2] was 8 h in each case. In addition, in series [6], the MED result was “No activity”.
Regarding `CCN(CC)C(=O)N1CCN(Cc2cc(Nc3ccnc4cc(Cl)ccc34)ccc2OC)CC1`, the TIME in series [1] was determined as 6 h; in series [2], 3 h. Moreover, in series [3], the MED is on record as 0.43 (mg of base) 20g-1. For the same compound, the LD app in series [4] came out at 0.41 mM/kg. The Ratio in series [5] came to 2.8.
For `CCN(CC)Cc1cc(Nc2ccnc3cc(Cl)ccc23)ccc1O.Cl` the same measures were 3 h, 3 h, 0.077 (mg of base) 20g-1, 0.32 mM/kg and 15.8.
Take `CCN(CC)C(=O)N1CCN(C)CC1` [DIETHYLCARBAMAZINE]: the results for the TIME in series [1] and in series [2] were 4 h and 2 h, respectively. In series [4], the LD app worked out at 1.34 mM/kg.
